Measurements taken from patent publication US8895744B2, “Alfa-carboline inhibitors of NPM-ALK, RET, and Bcr-Abl” (Universita' Degli Studi di Milano-Bicocca, priority 2008, dated 2014).

Key:
[1] = test system: parent untransformed BaF3 cells; assay: Tritiated thymidine uptake cell proliferation assay, parental BaF3 (control); assay type: cell-based; settings: Mus musculus, 3[H]-thymidine uptake, 72 h, medium with IL-3, read-out: BaF parental IC50
Protocol: (§1) Method: Tritiated Thymidine Uptake Cell Proliferation Assay
(§2) The following procedure was used with parent untransformed BaF3 cells, BaF3 cells transformed with the oncogenic fusion protein NPM/ALK, NPM/ALK positive SUDHL-1 cells, ALK-negative U937 cells, NPM/ALK positive KARPAS-299 cells. The parent untransformed BaF3 cells and Alk-negative U937 cells are used as controls. Cells were seeded in U-bottomed 96-well plates at 10 000 cells/well in a volume of 100 μL in supplemented medium. In the case of the parent untransformed BaF3 cells, the medium was supplemented with IL-3. Serial dilutions of inhibitors were added to the appropriate wells and volumes adjusted to 200 μL. Controls were treated with the equivalent volume of vehicle, DMSO, alone. Plates were incubated at 37° C. for 72 h. ^3[H]-thymidine (1 μCi/well) was added for the last 16 h of incubation. Cells were harvested on to paper filters and ^3[H]-thymidine incorporation was measured using a β scintillation counter (1430 MicroBeta, Wallac, Turku, Finland). The 50% inhibitory concentration (IC50) was defined as the concentration of inhibitor, expressed in micromolar, that gave a 50% decrease in ^3[H]-thymidine uptake compared with controls.
as §2, with “protein bcr-abl, Abl-negative” for “protein NPM/ALK, NPM/ALK positive SUDHL-1 cells, ALK-negative”, “cells, or Bcr-abl” for “cells, NPM/ALK”, “positive LAMA-84” for “positive KARPAS-299”, “and Abl-negative” for “and Alk-negative”, “in ^3H-thymidine” for “in ^3[H]-thymidine”
as §2, with “RET-PTC2, or RET-negative 11937” for “NPM/ALK, NPM/ALK positive SUDHL-1 cells, ALK-negative U937 cells, NPM/ALK positive KARPAS-299”, “RET-negative” for “Alk-negative”

[2] = target: T1, Recombinant Abl T315I protein (Homo sapiens, UniProt P00519, T315I); assay: Abl T315I mutant kinase inhibitory activity, ELISA-based in vitro kinase assay; assay type: biochemical; settings: purified Abl T315I, 0.3 mM ATP
T1 construct: made in house; host or cells: Sf9 cells (baculovirus)
Protocol: (§3) Recombinant ALK kinase was expressed in Sf9 insect cells using the pBlueBacHis2C baculovirus vector system and purified using an anion exchange Fast Flow Q-sepharose column (Amersham-Pharmacia Biotech) followed by HiTrap™-nickel affinity column (Amersham-Pharmacia Biotech). Purified ALK protein was used to screen inhibitors in the ELISA-based kinase assay. A Nunc Immuno 96 well plate was incubated overnight at 37° C. with coating solution (125 μL/well) containing ALK peptide substrate ([…]) (SEQ ID NO: 1) at various concentrations in PBS. Wells were then washed with 200 μL of wash buffer (PBS-Tween 0.05%) and left to dry for at least 2 h at 37° C. The kinase reaction was performed in the presence of 50 mM Tris pH 7.5, 5 mM MnCl2, 5 mM MgCl2, 0.3 mM ATP and purified rALK in a total volume of 100 μL/well at 30° C. for 15 min. For inhibitor testing the reaction mix was preincubated with the inhibitor or solvent control for 10 min at room temperature before transferring to the ELISA plate. After the reaction wells were washed 5 times with 200 μL of wash buffer. Phosphorylated peptide was detected using 100 μL/well of a mouse monoclonal anti-phosphotyrosine antibody (clone 4G10 Upstate Biotech Ltd) diluted 1:2000 in PBS+4% BSA. After 30 min incubation at room temperature the antibody was removed and wells were washed as described above. 100 μL of a secondary antibody (anti-mouse IgG, Horseradish Peroxidase linked whole antibody, Amersham Pharmacia Biotech) diluted 1:1000 in PBS+4% BSA was added to each well and the plate was incubated again for 30 min at room temperature before washing as above. The plate was developed using 100 μL/well TMB Substrate Solution (Endogen) and the reaction was stopped by adding an equiv.ual volume of H2SO4 0.36 M. Finally, the absorbance was read at 450 nm using an Ultrospec® 300 spectrophotometer (Amersham-Pharmacia Biotech). The concentration of the test solution showing 50% inhibition as compared with the control was expressed as IC50 (μM).
37. Abl T315I Mutant Kinase Inhibitory Activity
(§4) Method: ELISA-Based In Vitro Kinase Assay
Recombinant Abl T315I protein was expressed in Sf9 cells using the pBlueBacHis2C baculovirus expression vector. Abl T315I was purified using an anion exchange Fast Flow Q-sepharose column (Amersham-Pharmacia Biotech) followed by HiTrap™-nickel affinity column (Amersham-Pharmacia Biotech). Purified Abl T315I was used in the ELISA-based kinase assay to screen inhibitors as described above. The kinase reaction was performed in the presence of 50 mM Tris pH 7.5, 1 mM MnCl2, 5 mM MgCl2, 0.3 mM ATP, peptide substrate ([…]) (SEQ ID NO: 1) and purified Abl T315I. The concentration of the test solution showing 50% inhibition as compared with the control was expressed as IC50 (μM).

[3] = target: T2, Recombinant ALK kinase (Homo sapiens, UniProt Q9UM73); assay: ALK kinase inhibitory activity, ELISA-based in vitro kinase assay; assay type: biochemical; settings: purified rALK, 0.3 mM ATP, read-out: ALK IC50
T2 construct: made in house; host or cells: Sf9 insect cells (baculovirus)
Protocol: 36. Alk Kinase Inhibitory Activity
as §4, §3

[4] = target: T3, BaF3 cells transformed with the oncogenic fusion protein NPM/ALK (Homo sapiens, UniProt Q9UM73); assay: Tritiated thymidine uptake cell proliferation assay, BaF3 NPM/ALK; assay type: cell-based; settings: 3[H]-thymidine uptake, 72 h; read-out: BaF NPM/ALK IC50
T3 construct: fused on or other part: P06748 (Nucleophosmin)
Protocol: Inhibition of the proliferation of NPM/ALK positive cells
as §1, §2

T2 sequence (Q9UM73 19-1620): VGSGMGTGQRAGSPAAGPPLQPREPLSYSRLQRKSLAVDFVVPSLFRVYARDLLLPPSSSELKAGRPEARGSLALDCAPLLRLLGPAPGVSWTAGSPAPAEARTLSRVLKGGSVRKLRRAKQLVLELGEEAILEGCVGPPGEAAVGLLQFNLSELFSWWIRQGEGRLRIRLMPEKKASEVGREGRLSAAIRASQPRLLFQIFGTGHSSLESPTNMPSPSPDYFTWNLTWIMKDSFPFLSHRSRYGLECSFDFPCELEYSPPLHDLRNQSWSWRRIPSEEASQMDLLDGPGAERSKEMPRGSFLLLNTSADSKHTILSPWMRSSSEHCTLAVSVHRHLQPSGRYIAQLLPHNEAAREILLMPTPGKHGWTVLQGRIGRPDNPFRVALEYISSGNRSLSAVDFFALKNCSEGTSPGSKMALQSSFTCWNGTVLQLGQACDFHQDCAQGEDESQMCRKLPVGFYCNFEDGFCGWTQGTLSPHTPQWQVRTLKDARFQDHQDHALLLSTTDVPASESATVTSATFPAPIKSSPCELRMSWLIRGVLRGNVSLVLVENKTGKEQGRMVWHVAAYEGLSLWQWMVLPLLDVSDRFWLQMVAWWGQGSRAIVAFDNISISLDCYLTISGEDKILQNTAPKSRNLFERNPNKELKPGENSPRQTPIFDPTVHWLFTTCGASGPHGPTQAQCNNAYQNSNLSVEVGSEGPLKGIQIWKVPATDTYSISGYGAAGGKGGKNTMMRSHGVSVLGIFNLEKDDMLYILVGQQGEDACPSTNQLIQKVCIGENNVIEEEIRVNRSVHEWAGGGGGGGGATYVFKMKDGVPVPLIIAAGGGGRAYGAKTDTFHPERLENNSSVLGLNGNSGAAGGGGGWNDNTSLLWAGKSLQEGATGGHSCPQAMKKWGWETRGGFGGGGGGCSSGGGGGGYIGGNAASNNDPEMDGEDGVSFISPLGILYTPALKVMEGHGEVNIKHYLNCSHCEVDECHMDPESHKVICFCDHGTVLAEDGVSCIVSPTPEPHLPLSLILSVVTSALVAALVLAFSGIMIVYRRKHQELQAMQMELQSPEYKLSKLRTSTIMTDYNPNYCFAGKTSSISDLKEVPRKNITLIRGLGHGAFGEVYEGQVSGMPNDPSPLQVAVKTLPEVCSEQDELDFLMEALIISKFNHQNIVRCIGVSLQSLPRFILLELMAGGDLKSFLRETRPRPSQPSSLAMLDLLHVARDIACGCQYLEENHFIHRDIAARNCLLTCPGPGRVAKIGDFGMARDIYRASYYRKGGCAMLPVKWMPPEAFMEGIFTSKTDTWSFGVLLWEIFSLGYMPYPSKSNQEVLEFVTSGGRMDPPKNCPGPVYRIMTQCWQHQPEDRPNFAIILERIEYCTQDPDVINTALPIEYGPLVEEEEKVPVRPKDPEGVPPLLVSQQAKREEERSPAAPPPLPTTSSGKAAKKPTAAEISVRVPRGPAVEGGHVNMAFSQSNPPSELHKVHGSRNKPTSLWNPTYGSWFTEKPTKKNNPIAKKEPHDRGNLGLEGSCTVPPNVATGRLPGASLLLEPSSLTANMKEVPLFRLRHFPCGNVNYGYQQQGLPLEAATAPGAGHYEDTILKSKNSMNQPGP
T3 sequence (Q9UM73 whole entry, change not shown, the tested form may be a part): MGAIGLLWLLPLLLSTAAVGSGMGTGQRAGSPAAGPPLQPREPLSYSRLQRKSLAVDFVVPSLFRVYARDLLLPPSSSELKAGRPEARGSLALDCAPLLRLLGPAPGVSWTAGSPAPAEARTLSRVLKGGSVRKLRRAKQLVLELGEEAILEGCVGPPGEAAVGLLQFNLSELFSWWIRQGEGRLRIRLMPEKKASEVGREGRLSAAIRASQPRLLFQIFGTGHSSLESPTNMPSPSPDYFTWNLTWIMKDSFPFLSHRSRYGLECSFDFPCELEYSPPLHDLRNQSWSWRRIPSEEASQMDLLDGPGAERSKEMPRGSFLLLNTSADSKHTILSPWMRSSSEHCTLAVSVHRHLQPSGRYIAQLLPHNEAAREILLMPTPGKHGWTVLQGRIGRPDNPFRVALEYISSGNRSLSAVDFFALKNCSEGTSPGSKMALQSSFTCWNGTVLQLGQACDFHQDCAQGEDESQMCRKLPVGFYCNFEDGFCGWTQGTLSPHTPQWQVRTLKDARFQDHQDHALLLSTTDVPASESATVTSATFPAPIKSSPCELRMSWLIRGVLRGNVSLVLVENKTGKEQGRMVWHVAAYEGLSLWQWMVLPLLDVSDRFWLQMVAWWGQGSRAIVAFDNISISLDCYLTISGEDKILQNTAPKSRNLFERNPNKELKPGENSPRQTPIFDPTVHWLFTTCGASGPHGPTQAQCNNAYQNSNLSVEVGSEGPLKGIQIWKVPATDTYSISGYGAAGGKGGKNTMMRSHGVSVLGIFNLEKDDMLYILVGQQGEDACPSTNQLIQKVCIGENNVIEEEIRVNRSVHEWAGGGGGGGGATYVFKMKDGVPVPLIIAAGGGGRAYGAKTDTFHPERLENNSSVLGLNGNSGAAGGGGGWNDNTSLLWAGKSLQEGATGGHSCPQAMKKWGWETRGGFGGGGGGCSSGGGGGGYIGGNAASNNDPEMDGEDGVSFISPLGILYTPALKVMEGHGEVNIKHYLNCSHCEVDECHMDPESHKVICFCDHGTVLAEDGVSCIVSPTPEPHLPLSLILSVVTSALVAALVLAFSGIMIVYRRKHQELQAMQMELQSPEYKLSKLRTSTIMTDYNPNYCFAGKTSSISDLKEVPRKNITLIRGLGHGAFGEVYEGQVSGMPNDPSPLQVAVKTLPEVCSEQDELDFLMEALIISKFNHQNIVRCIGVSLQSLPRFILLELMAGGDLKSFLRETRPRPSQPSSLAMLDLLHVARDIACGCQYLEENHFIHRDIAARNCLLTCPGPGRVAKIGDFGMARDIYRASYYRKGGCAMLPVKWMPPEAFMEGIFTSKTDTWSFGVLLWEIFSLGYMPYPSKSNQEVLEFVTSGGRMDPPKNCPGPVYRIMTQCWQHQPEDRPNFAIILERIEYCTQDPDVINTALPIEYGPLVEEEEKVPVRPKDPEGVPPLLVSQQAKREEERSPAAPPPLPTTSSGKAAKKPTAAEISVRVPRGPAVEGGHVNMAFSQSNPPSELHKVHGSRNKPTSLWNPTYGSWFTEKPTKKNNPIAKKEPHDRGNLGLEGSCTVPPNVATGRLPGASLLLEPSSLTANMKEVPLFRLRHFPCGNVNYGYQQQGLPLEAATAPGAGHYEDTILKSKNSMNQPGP

| Structure (SMILES) | melting point [°C] | also measured |
| --- | --- | --- |
| C(=C\c1ccnc2[nH]c3ccccc3c12)/c1ccccc1 [R310, 4-(2′-phenylethenyl)-9H-pyrido[2,3-b]indole] | > 220 |  |
| Clc1cnc2[nH]c3ccc(-c4ccc(CN5CCOCC5)cc4)cc3c2c1 [R313, 3-chloro-6-(4-(morpholin-4-yl)methylphenyl)-9H-pyrido[2,3-b]indole] |  | IC50 [1]: 0.5 µM; IC50 [2]: > 10 µM; IC50 [3]: 8.8 ± 2.7 µM; GI50 [4]: 0.64 µM |
| O=[N+]([O-])c1cccc(Nc2ccc3c(n2)[nH]c2ccccc23)c1 [R317, N-(3-nitrophenyl)-9H-pyrido[2,3-b]indol-2-amine] |  | IC50 [1]: 6.3 µM; IC50 [2]: 26 µM; IC50 [3]: 8.2 ± 2.1 µM; GI50 [4]: 2.6 µM |
| O=[N+]([O-])c1ccccc1Nc1ccc2c(n1)[nH]c1ccccc12 [R319, N-(2-nitrophenyl)-9H-pyrido[2,3-b]indol-2-amine] |  | IC50 [1]: 44 µM; IC50 [2]: 16 µM; IC50 [3]: 4.7 ± 0.2 µM; GI50 [4]: 11 µM |
| O=C(O)c1ccc2[nH]c3ncc(Cl)cc3c2c1 [compound 5, 3-chloro-9H-pyrido[2,3-b]indol-6-carboxylic acid] | > 295 |  |
| Cc1ccc2c(n1)[nH]c1ccc(C(=O)O)cc12 [compound 6, 2-methyl-9H-pyrido[2,3-b]indol-6-carboxylic acid] | > 295 |  |
| Clc1ccc2c(n1)[nH]c1ccc(Br)cc12 [compound 9, 6-bromo-2-chloro-9H-pyrido[2,3-b]indole] | > 220 |  |
| Clc1ccnc2[nH]c3ccc(Br)cc3c12 [compound 10, 6-bromo-4-chloro-9H-pyrido[2,3-b]indole] | > 220 |  |
| O=C(O)CCC(=O)c1ccc2[nH]c3ncc(Cl)cc3c2c1 [compound 11, 4-(3-Chloro-9H-pyrido[2,3-b]indol-6-yl)-4-oxo-butyric acid] | 243 |  |
| O=C(O)CCC(=O)c1ccc2[nH]c3nc(Cl)ccc3c2c1 [compound 12, 4-(2-Chloro-9H-pyrido[2,3-b]indol-6-yl)-4-oxo-butyric acid] | 280.8 |  |
| O=S(=O)(c1ccccc1)n1c2ccc(Br)cc2c2ccc(Cl)nc21 [compound 19, 9-benzenesulfonyl-6-bromo-2-chloro-9H-pyrido[2,3-b]indole] | 204 to 206 |  |
| O=S(=O)(c1ccccc1)n1c2ccc(Br)cc2c2cc(Cl)cnc21 [compound 20, 9-benzenesulfonyl-6-bromo-3-chloro-9H-pyrido[2,3-b]indole] | 242 |  |
| O=S(=O)(c1ccccc1)n1c2ccc(Br)cc2c2c(Cl)ccnc21 [compound 21, 9-benzenesulfonyl-6-bromo-4-chloro-9H-pyrido[2,3-b]indole] | 212 to 214 |  |
| COc1ccc(-c2ccc3c(c2)c2cc(Cl)cnc2n3S(=O)(=O)c2ccccc2)cc1 [compound 26, 9-benzenesulfonyl-3-chloro-6-(4-methoxyphenyl)-9H-pyrido[2,3-b]indole] | > 220 |  |
| O=S(=O)(c1ccccc1)n1c2ccc(/C=C/c3ccccc3)cc2c2cc(Cl)cnc21 [compound 27, 9-benzenesulfonyl-3-chloro-6-(2′-phenylethenyl)-9H-pyrido[2,3-b]indole] | 190 to 192 |  |
| COc1ccc(-c2ccc3c(c2)c2ccc(Cl)nc2n3S(=O)(=O)c2ccccc2)cc1 [compound 32, 9-benzenesulfonyl-2-chloro-6-(4-methoxyphenyl)-9H-pyrido[2,3-b]indole] | 176 to 178 |  |

Now from value to molecule, other results behind:

| melting point [°C] | Structure (SMILES) | also measured |
| --- | --- | --- |
| 209 to 211 | COc1ccc(-c2ccc3c(c2)c2c(Cl)ccnc2n3S(=O)(=O)c2ccccc2)cc1 [compound 34, 9-benzenesulfonyl-4-chloro-6-(4-methoxyphenyl)-9H-pyrido[2,3-b]indole] |  |
| 216 to 218 | O=S(=O)(c1ccccc1)n1c2ccc(/C=C/c3ccccc3)cc2c2c(Cl)ccnc21 [compound 35, 9-benzenesulfonyl-4-chloro-6-(2′-phenylethenyl)-9H-pyrido[2,3-b]indole] |  |
| 206 to 208 | COc1ccc(-c2ccc3c(c2)c2ccc(-c4ccc(OC)cc4)nc2n3S(=O)(=O)c2ccccc2)cc1 [compound 36, 9-benzenesulfonyl-2,6-di(4-methoxyphenyl)-9H-pyrido[2,3-b]indole] |  |
| 162 to 164 | COc1ccc(-c2ccc3c(c2)c2c(-c4ccc(OC)cc4)ccnc2n3S(=O)(=O)c2ccccc2)cc1 [compound 37, 9-benzenesulfonyl-4,6-di(4-methoxyphenyl)-9H-pyrido[2,3-b]indole] |  |
| 193 to 195 | COc1ccc(-c2ccc3c(c2)c2ccc(/C=C/c4ccccc4)nc2n3S(=O)(=O)c2ccccc2)cc1 [compound 43, 9-benzenesulfonyl-6-(4-methoxyphenyl)-2-(2′-phenylethenyl)-9H-pyrido[2,3-b]indole] |  |
| 190 to 192 | COc1ccc(-c2ccc3c(c2)c2c(/C=C/c4ccccc4)ccnc2n3S(=O)(=O)c2ccccc2)cc1 [compound 45, 9-benzenesulfonyl-6-(4-methoxyphenyl)-4-(2′-phenylethenyl)-9H-pyrido[2,3-b]indole] |  |
| 158 to 162 | O=S(=O)(c1ccccc1)n1c2ccc(CCc3ccccc3)cc2c2cc(Cl)cnc21 [compound 61, 9-(benzenesulfonyl)-3-chloro-6-(2′-phenylethyl)-9H-pyrido[2,3-b]indole] |  |
